Assay results reported in patent US20240043427A1 (Gilead Sciences, Inc., priority 2020, published 2024).
pEC50, pIC50: −log10 of the molar value.

Tests used:
[1] = target: T1, CD73 (Homo sapiens (Human), UniProt P21589); type: biochemical; conditions: 1 mM NaH2PO4 in enzyme buffer, CD73 0.3 nM, AMP 15 uM
Description: Compound serial dilutions were pre-spotted into Thermo Nunc assay plate. 50 uL CD73 enzyme buffer (CD73 purchased from R&D system=0.6 nM, 25 mM Tris, pH 7.4, 5 mM MgCl2, 1 mM NaH2PO4) was added into the assay plate and incubate for 15 mins. […] After incubation for 60 mins, the supernatant (20 uL) was transferred into 384-well NUNC plate pre-filled with 60 uL Quench buffer (80% organic and 20% water+0.1% FA) with internal standard. The plate was spun down at 4500 rpm for 20 mins, then 20 uL of supernatant was transferred to another Nunc plate prefilled with 80 uL of water. The samples were analyzed using Rapid fire.

[2] = target: T1, CD73; assay: MDA-MB-231 Cell Based CD73 Activity Assay (DMEM); conditions: MDA-MB-231-GFP cells, DMEM medium with 10% human plasma, 200 uM AMP

T1 sequence (P21589 27-574): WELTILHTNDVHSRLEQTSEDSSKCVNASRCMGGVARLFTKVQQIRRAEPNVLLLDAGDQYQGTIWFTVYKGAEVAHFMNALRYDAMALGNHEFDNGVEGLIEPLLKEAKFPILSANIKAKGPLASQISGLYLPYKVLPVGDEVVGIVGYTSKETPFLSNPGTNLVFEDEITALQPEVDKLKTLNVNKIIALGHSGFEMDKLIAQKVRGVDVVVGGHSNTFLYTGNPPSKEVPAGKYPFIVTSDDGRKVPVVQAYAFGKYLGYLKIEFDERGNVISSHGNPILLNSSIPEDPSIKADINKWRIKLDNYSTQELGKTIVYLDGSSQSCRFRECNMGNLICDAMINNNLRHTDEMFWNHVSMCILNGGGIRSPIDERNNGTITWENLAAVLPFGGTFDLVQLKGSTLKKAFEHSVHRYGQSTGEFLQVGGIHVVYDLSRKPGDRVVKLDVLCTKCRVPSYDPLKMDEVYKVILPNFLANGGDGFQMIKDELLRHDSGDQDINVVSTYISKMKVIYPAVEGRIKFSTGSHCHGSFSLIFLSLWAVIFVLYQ

| SMILES | pIC50 [1] | pEC50 [2] |
| --- | --- | --- |
| O=C(OC1CN(c2cc(-c3c[nH]c(=O)[nH]c3=O)nn3ccnc23)CC1(F)F)N1CC(F)(F)C1 (stereo not drawn) [Example 536, 1-(6-(2,4-dioxo-1,2,3,4-tetrahydropyrimidin-5-yl)imidazo[1,2-b]pyridazin-8-yl)-4,4-difluoropyrrolidin-3-yl 3,3-difluoroazetidine-1-carboxylate] | 8.42 | 8.30 |
| O=c1[nH]cc(-c2cc(N3C[C@H](Oc4ccccn4)C(F)(F)C3)c3nccn3n2)c(=O)[nH]1 [Example 537, (S)-5-(8-(3,3-difluoro-4-(pyridin-2-yloxy)pyrrolidin-1-yl)imidazo[1,2-b]pyridazin-6-yl)pyrimidine-2,4(1H,3H)-dione] | 9.38 | 8.68 |
| O=c1[nH]cc(-c2cc(N3C[C@@H](Oc4ccccn4)C(F)(F)C3)c3nccn3n2)c(=O)[nH]1 [Example 538, (R)-5-(8-(3,3-difluoro-4-(pyridin-2-yloxy)pyrrolidin-1-yl)imidazo[1,2-b]pyridazin-6-yl)pyrimidine-2,4(1H,3H)-dione] | 7.94 | 7.31 |
| O=C(OCC(F)(F)F)O[C@H]1CN(c2cc(-c3c[nH]c(=O)[nH]c3=O)nn3ccnc23)CC1(F)F [Example 541, (S)-1-(6-(2,4-dioxo-1,2,3,4-tetrahydropyrimidin-5-yl)imidazo[1,2-b]pyridazin-8-yl)-4,4-difluoropyrrolidin-3-yl (2,2,2-trifluoroethyl) carbonate] | 9.26 | 7.44 |
| O=C(OCC(F)(F)F)O[C@@H]1CN(c2cc(-c3c[nH]c(=O)[nH]c3=O)nn3ccnc23)CC1(F)F [Example 543, (R)-1-(6-(2,4-dioxo-1,2,3,4-tetrahydropyrimidin-5-yl)imidazo[1,2-b]pyridazin-8-yl)-4,4-difluoropyrrolidin-3-yl (2,2,2-trifluoroethyl) carbonate] | 8.84 | 7.76 |
| CC(C)(C)NC(=O)O[C@H]1CN(c2cc(-c3c[nH]c(=O)[nH]c3=O)nn3ccnc23)CC1(F)F [Example 544, (S)-1-(6-(2,4-dioxo-1,2,3,4-tetrahydropyrimidin-5-yl)imidazo[1,2-b]pyridazin-8-yl)-4,4-difluoropyrrolidin-3-yl tert-butylcarbamate] | 9.00 | 9.89 |
| O=C(NCC(F)(F)F)O[C@H]1CN(c2cc(-c3c[nH]c(=O)[nH]c3=O)nn3ccnc23)CC1(F)F [Example 545, (S)-1-(6-(2,4-dioxo-1,2,3,4-tetrahydropyrimidin-5-yl)imidazo[1,2-b]pyridazin-8-yl)-4,4-difluoropyrrolidin-3-yl (2,2,2-trifluoroethyl)carbamate] | 9.40 | 9.66 |
| C[C@@H](NC(=O)O[C@H]1CN(c2cc(-c3c[nH]c(=O)[nH]c3=O)nn3ccnc23)CC1(F)F)C(F)(F)F [Example 546, (S)-1-(6-(2,4-dioxo-1,2,3,4-tetrahydropyrimidin-5-yl)imidazo[1,2-b]pyridazin-8-yl)-4,4-difluoropyrrolidin-3-yl ((R)-1,1,1-trifluoropropan-2-yl)carbamate] | 8.91 | 9.16 |
| C[C@H](NC(=O)O[C@H]1CN(c2cc(-c3c[nH]c(=O)[nH]c3=O)nn3ccnc23)CC1(F)F)C(F)(F)F [Example 547, (S)-1-(6-(2,4-dioxo-1,2,3,4-tetrahydropyrimidin-5-yl)imidazo[1,2-b]pyridazin-8-yl)-4,4-difluoropyrrolidin-3-yl ((S)-1,1,1-trifluoropropan-2-yl)carbamate] | 9.51 | 9.89 |
| COC[C@@H](C)NC(=O)O[C@H]1CN(c2cc(-c3c[nH]c(=O)[nH]c3=O)nn3ccnc23)CC1(F)F [Example 548, (S)-1-(6-(2,4-dioxo-1,2,3,4-tetrahydropyrimidin-5-yl)imidazo[1,2-b]pyridazin-8-yl)-4,4-difluoropyrrolidin-3-yl ((R)-1-methoxypropan-2-yl)carbamate] | 9.20 | 9.89 |
| COC[C@H](C)NC(=O)O[C@H]1CN(c2cc(-c3c[nH]c(=O)[nH]c3=O)nn3ccnc23)CC1(F)F [Example 549, (S)-1-(6-(2,4-dioxo-1,2,3,4-tetrahydropyrimidin-5-yl)imidazo[1,2-b]pyridazin-8-yl)-4,4-difluoropyrrolidin-3-yl ((S)-1-methoxypropan-2-yl)carbamate] | 9.00 | 9.55 |
| CC(NC(=O)O[C@H]1CN(c2cc(-c3c[nH]c(=O)[nH]c3=O)nn3ccnc23)CC1(F)F)C(F)F (stereo partly drawn) [Example 550, (S)-1-(6-(2,4-dioxo-1,2,3,4-tetrahydropyrimidin-5-yl)imidazo[1,2-b]pyridazin-8-yl)-4,4-difluoropyrrolidin-3-yl (1,1-difluoropropan-2-yl)carbamate] | 8.78 | 9.08 |
| O=C(NC12CC(C1)C2)O[C@H]1CN(c2cc(-c3c[nH]c(=O)[nH]c3=O)nn3ccnc23)CC1(F)F [Example 551, (S)-1-(6-(2,4-dioxo-1,2,3,4-tetrahydropyrimidin-5-yl)imidazo[1,2-b]pyridazin-8-yl)-4,4-difluoropyrrolidin-3-yl bicyclo[1.1.1]pentan-1-ylcarbamate] | 9.62 | 9.89 |
| O=c1[nH]cc(-c2cc([C@H]3C[C@@H]3c3ccc(C(F)(F)F)cc3)c3nccn3n2)c(=O)[nH]1 [Example 554, 5-(8-((1S,2S)-2-(4-(trifluoromethyl)phenyl)cyclopropyl)imidazo[1,2-b]pyridazin-6-yl)pyrimidine-2,4(1H,3H)-dione] | 8.80 | 7.92 |
| O=c1[nH]cc(-c2cc([C@H]3C[C@@H]3c3ccc(OC(F)F)cc3)c3nccn3n2)c(=O)[nH]1 [Example 561, 5-(8-((1S,2S)-2-(4-(difluoromethoxy)phenyl)cyclopropyl)imidazo[1,2-b]pyridazin-6-yl)pyrimidine-2,4(1H,3H)-dione] | 9.15 | 8.51 |
| O=c1[nH]cc(-c2cc([C@H]3C[C@@H]3c3ccc4nc(C(F)(F)F)sc4c3)c3nccn3n2)c(=O)[nH]1 [Example 562, 5-(8-((1S,2S)-2-(2-(trifluoromethyl)benzo[d]thiazol-6-yl)cyclopropyl)imidazo[1,2-b]pyridazin-6-yl)pyrimidine-2,4(1H,3H)-dione] | 9.01 | 8.58 |
| O=c1[nH]cc(-c2cc(N3CCC4(CCC4)C3)c3nccn3n2)c(=O)[nH]1 [Example 569, 5-(8-(6-azaspiro[3.4]octan-6-yl)imidazo[1,2-b]pyridazin-6-yl)pyrimidine-2,4(1H,3H)-dione] | 8.18 | 7.95 |
| O=c1[nH]cc(-c2cc(N3CCC4(C3)CC(F)(F)C4)c3nccn3n2)c(=O)[nH]1 [Example 571, 5-(8-(2,2-difluoro-6-azaspiro[3.4]octan-6-yl)imidazo[1,2-b]pyridazin-6-yl)pyrimidine-2,4(1H,3H)-dione] | 7.52 | 7.21 |

More lines, now with the values ahead:

| pIC50 [1] | pEC50 [2] | SMILES |
| --- | --- | --- |
| 8.86 | 8.16 | N#Cc1cc([C@H]2C[C@@H]2c2cc(-c3c[nH]c(=O)[nH]c3=O)nn3ccnc23)ccc1Cl [Example 553, 2-chloro-5-((1S,2S)-2-(6-(2,4-dioxo-1,2,3,4-tetrahydropyrimidin-5-yl)imidazo[1,2-b]pyridazin-8-yl)cyclopropyl)benzonitrile] |
| 8.77 | 8.01 | N#Cc1c(F)cc([C@H]2C[C@@H]2c2cc(-c3c[nH]c(=O)[nH]c3=O)nn3ccnc23)cc1F [Example 557, 4-((1S,2S)-2-(6-(2,4-dioxo-1,2,3,4-tetrahydropyrimidin-5-yl)imidazo[1,2-b]pyridazin-8-yl)cyclopropyl)-2,6-difluorobenzonitrile] |
| 8.54 | 7.69 | N#Cc1ccc([C@H]2C[C@@H]2c2cc(-c3c[nH]c(=O)[nH]c3=O)nn3ccnc23)c(F)c1F [Example 558, 4-((1S,2S)-2-(6-(2,4-dioxo-1,2,3,4-tetrahydropyrimidin-5-yl)imidazo[1,2-b]pyridazin-8-yl)cyclopropyl)-2,3-difluorobenzonitrile] |
| 9.01 | 8.11 | COc1cc([C@H]2C[C@@H]2c2cc(-c3c[nH]c(=O)[nH]c3=O)nn3ccnc23)ccc1C#N [Example 559, 4-((1S,2S)-2-(6-(2,4-dioxo-1,2,3,4-tetrahydropyrimidin-5-yl)imidazo[1,2-b]pyridazin-8-yl)cyclopropyl)-2-methoxybenzonitrile] |
| 9.07 | 8.54 | Cc1cc([C@H]2C[C@@H]2c2cc(-c3c[nH]c(=O)[nH]c3=O)nn3ccnc23)ccc1C#N [Example 560, 4-((1S,2S)-2-(6-(2,4-dioxo-1,2,3,4-tetrahydropyrimidin-5-yl)imidazo[1,2-b]pyridazin-8-yl)cyclopropyl)-2-methylbenzonitrile] |
| 9.18 | 7.97 | N#Cc1ccc([C@H]2C[C@@H]2c2cc(-c3c[nH]c(=O)[nH]c3=O)nn3ccnc23)cc1C1CC1 [Example 563, 2-cyclopropyl-4-((1S,2S)-2-(6-(2,4-dioxo-1,2,3,4-tetrahydropyrimidin-5-yl)imidazo[1,2-b]pyridazin-8-yl)cyclopropyl)benzonitrile] |
| 8.70 | 8.03 | N#Cc1cc(F)c([C@H]2C[C@@H]2c2cc(-c3c[nH]c(=O)[nH]c3=O)nn3ccnc23)cc1F [Example 565, 4-((1S,2S)-2-(6-(2,4-dioxo-1,2,3,4-tetrahydropyrimidin-5-yl)imidazo[1,2-b]pyridazin-8-yl)cyclopropyl)-2,5-difluorobenzonitrile] |
| 9.11 | 8.35 | N#Cc1ccc([C@H]2C[C@@H]2c2cc(-c3c[nH]c(=O)[nH]c3=O)nn3ccnc23)cc1Cl [Example 566, 2-chloro-4-((1S,2S)-2-(6-(2,4-dioxo-1,2,3,4-tetrahydropyrimidin-5-yl)imidazo[1,2-b]pyridazin-8-yl)cyclopropyl)benzonitrile] |
| 8.76 | 8.10 | Cc1cc([C@H]2C[C@@H]2c2cc(-c3c[nH]c(=O)[nH]c3=O)nn3ccnc23)cc(F)c1C#N [Example 567, 4-((1S,2S)-2-(6-(2,4-dioxo-1,2,3,4-tetrahydropyrimidin-5-yl)imidazo[1,2-b]pyridazin-8-yl)cyclopropyl)-2-fluoro-6-methylbenzonitrile] |
